Measured values from patent EP1012175B1, “A PEPTIDE WITH AN AFFINITY FOR CLOTTING FACTOR VIII” (Octapharma AG, priority 1997, dated 2003).
“Also recorded” adds a separate entry of the source.

How the values were obtained:
[1] = tested on: pdFVIII (Faktor VIII aus Plasma); test: Membrane spot binding test: immobilised peptides incubated with plasma-derived factor VIII (Octavi), detected with anti-FVIII antibodies; design: species or system human; conditions: peptide immobilised on membrane; Octavi 240 Units in 10 ml PBS pH 7.0 with 1% BSA, 2 h; binders appear as coloured spots
Experimental: (§1) Die Peptide Seq. Id. No. 55 bis 90 wurden auf einer Membran immobilisiert. Nach Äquilibrieren mit PBS Puffer pH 7.0 wurde eine Membran mit Faktor VIII Octavi® (240 Units in 10 ml PBS pH 7.0 mit 1% BSA), eine andere mit Kogenate® (250 U in 10 ml PBS, pH 7.0 mit 1% BSA) und eine nur mit PBS, pH 7.0 mit 1% BSA für zwei Stunden inkubiert. Die mit den Peptiden besetzten Membranen wurden sorgfältig mit PBS Puffer pH 7.0 gewaschen und anschließend mit den Anti-FVIII Antikörpern (Chemicon International Inc., MAB038, Sera-Lab MAS 530, MAS 531, MAS 532) für eine Stunde versetzt. Nach Waschen und Inkubieren mit Anti-Maus-IgG/alkalische Phosphatase Konjugat (1:1000, Sigma Chemicals, A-4338) wurde mit Hilfe von NBT und BCIP in 0,1 M Trispuffer, pH 9,2, entwickelt. Faktor VIII bindende Peptide erschienen als gefärbte Spots. Die Kontrollmembran (nur mit PBS pH 7.0 ohne Faktor VIII) wurde mit den beiden anderen verglichen.

[2] = tested on: rekombinanten Faktor VIII; test: Membrane spot binding test: immobilised peptides incubated with recombinant factor VIII (Kogenate), detected with anti-FVIII antibodies; conditions: peptide immobilised on membrane; Kogenate 250 U in 10 ml PBS pH 7.0 with 1% BSA, 2 h; binders appear as coloured spots
Experimental: as §1

pdFVIII = test: Affinity chromatography of pdFVIII on peptide membranes; eluates analysed by SDS-PAGE and Western blot; type: binding, human; conditions: for Banden in der SDS-PAGE unter reduzierenden Bedingungen und Silberfärbung / Western Blot des Eluates: eluate of pdFVIII run; for Banden in der SDS-PAGE unter reduzierenden Bedingungen und Silberfärbung / Elutionspeak: compared with (βAla)2 control membrane; for Western Blot des Eluates: control membrane weakly positive; for Eignung für die Affinitätschromatographie von pdFVIII: general statement of the description; for Elutionspeak: pdFVIII, elution with 0,1 M Glycin pH 3.0
Excerpt: (§2) Aus Membranen, auf die die jeweiligen Peptide immobilisiert wurden, wurden jeweils 30 Scheiben mit einem Durchmesser von 11 mm ausgestanzt. Diese wurden in eine HR 10 Säule (Pharmacia Biotechnology, Uppsala, Schweden) gepackt und zwischen zwei Stempeln fixiert.
(§3) Für alle chromatographischen Experimente wurde das Chromatographiesystem ProSys (Biosepra Inc. Marlborough, USA) verwendet.
(§4) PBS Puffer pH 7.0 wurde als Äquilibrierungs- und Waschpuffer verwendet. Für die Elution wurde ein 0,1 M Glycinpuffer pH 3.0 angewandt. Die Flußgeschwindigkeit betrug bei allen Versuchen 0,1 ml/min.
Lyophilisierter Faktor VIII aus Plasma wurde in 11 ml destilliertem Wasser zu einer Konzentration von 90 Units/ml aufgelöst. Davon wurden jeweils 4 ml mit einer Flußrate von 0,1 ml/min aufgetragen. Anschließend wurden die Affinitätsträger mit PBS-Puffer pH 7.0 gewaschen bis das UV Signal (280 nm) wieder die Basislinie erreichte. Das gebundene Material wurde mit 0,1 M Glycin pH 3.0 eluiert. Die gesammelten Fraktionen wurde mittels SDS-Page unter reduzierenden Bedingungen und Western Blot analysiert. Auf diese Weise wurden Peptide und der ßAla-ßAla-Blank auf ihre Fähigkeit Faktor VIII aus dem Octavipräparat zu binden untersucht.
(§5) Der Durchlauf und die Eluate aller Läufe wurden gesammelt und mittels SDS-PAGE unter reduzierenden Bedingungen und Western-Blot analysiert.
Für die Auftrennung wurden 4 bis 20% Tris-Glycin Gele von Novex verwendet. Die Proben wurden mit SDS-Probepuffer (1,5 M Tris HCl pH 8.45, 1,2 ml Glycerin, 0,4 g SDS, 0,1% Coomassie Blue, 0,1% Phenol Rot pro 10 ml), und 5% ß-Mercaptoethanol versetzt und über Nacht bei 4°C inkubiert. Nach der Trennung wurden die Gele silbergefärbt und eingescannt.
Nach Beendigung der elektrophoretischen Trennung wurden die Gele auf eine Nitrocellulose Membran bei 200 mA konstant für zwei Stunden elektrogeblottet. Anschließend wurde die Membran mit PBS + 3% BSA für zwei Stunden blockiert. Nach Waschen mit PBS Puffer erfolgte die Zugabe der Anti-FVIII Antikörpermischung (Chemicon International Inc., MAB038, Sera-Lab MAS 530, MAS 531, MAS 532) für zwei Stunden. Nach Waschen mit PBS wurde mit Anti Maus IgG alkalische Phosphatase (1:1000, Sigma Chemicals, A-3438) für eine Stunde inkubiert. Die Entwicklung erfolgte mit 0,1 M Tris, pH 9.2, NBT und BCIP.
(§6) Die Affinitätschromatographie wurde wie im Beispiel 1 beschrieben, durchgeführt.

[3] = tested on: rekombinantem Faktor VIII aus Kogenate®; test: Affinity chromatography of recombinant factor VIII (Kogenate) on peptide membranes; eluates analysed by Western blot; type: binding; conditions: for Western Blot der Eluate: eluate of rFVIII (Kogenate) run, control membrane also positive; for Elutionspeak: rFVIII (Kogenate), elution with 0,1 M Glycin pH 3.0, compared with ßAla-ßAla control membrane
Excerpt: as §2, §3, §4
Die Bindung von rekombinantem Faktor VIII wurde mittels Kogenate® (Firma Bayer) untersucht. Jeweils 400 µl des Präparates (200 Units) wurden mit 1.400 µl destilliertem Wasser verdünnt und anschließend mit einer Flußrate von 0,1 ml/min auf den Affinitätsträger aufgetragen. Das Waschen erfolgte wiederum mit PBS, pH 7.0 und die darauf folgende Elution mit 0,1 M Glycin, pH 3.0. Die Fraktionen wurden mittels SDS-Page unter reduzierenden Bedingungen und Western-Blot analysiert.
as §5
Für die Auftrennung wurden 4 bis 20% Tris-Glycin Gele von Novex verwendet. […] Nach der Trennung wurden die Gele silbergefärbt und eingescannt.
Nach Beendigung der elektrophoretischen Trennung wurden die Gele auf eine Nitrocellulose Membran bei 200 mA konstant für zwei Stunden elektrogeblottet. Anschließend wurde die Membran mit PBS + 3% BSA für zwei Stunden blockiert. […] Die Entwicklung erfolgte mit 0,1 M Tris, pH 9.2, NBT und BCIP.
as §6

| Substance | Bindung zu pdFVIII (Faktor VIII aus Plasma) [1] | Bindung von rekombinantem Faktor VIII [2] | also measured |
| --- | --- | --- | --- |
| 61 (VMKSCEYC) [compound 61] | Bindung zu pdFVIII | keinen rekombinanten Faktor VIII |  |
| 89 (EYKSWEYC) [compound 89] | auffallende Affinität; also recorded: Bindung zu pdFVIII | auffallende Affinität |  |
| 76 (EWKSEFEF) [compound 76] | Bindung zu pdFVIII |  |  |
| 84 (EYIKWEEF) [compound 84] | auffallende Affinität | auffallende Affinität |  |
| 71 (EWIKWEYC) [compound 71] | Bindung zu pdFVIII | binden rekombinanten Faktor VIII |  |
| 78 (EWKSWEEF) [compound 78] | auffallende Affinität; also recorded: Bindung zu pdFVIII | auffallende Affinität |  |
| 66 (VMKSWEEF) [compound 66] | auffallende Affinität; also recorded: Bindung zu pdFVIII | auffallende Affinität; also recorded: binden rekombinanten Faktor VIII | Banden in der SDS-PAGE unter reduzierenden Bedingungen und Silberfärbung (pdFVIII): intensiver gefärbte Banden; Western Blot des Eluates (pdFVIII): positiv; Eignung für die Affinitätschromatographie von pdFVIII (pdFVIII): eignen sich insbesondere; Elutionspeak (pdFVIII): größere Elutionspeaks; Western Blot der Eluate [3]: positiv; Eignung für die Affinitätschromatographie von rFVIII (rekombinantem Faktor VIII) ([3]; general statement of the description): eignen sich insbesondere; Elutionspeak [3]: deutlich größer |
| 68 (EWIKCEEF) [compound 68] |  | binden rekombinanten Faktor VIII |  |
| 77 (EWKSWEYC) [compound 77] | Bindung zu pdFVIII |  |  |
| EYKSWEEF [Seq. Id. No. 90, Peptid, 8 Aminosäuren] | auffallende Affinität; also recorded: Bindung zu pdFVIII | auffallende Affinität | Western Blot der Eluate [3]: positiv; Elutionspeak [3]: deutlich größer |
| 72 (EWIKWEEF) [compound 72] | auffallende Affinität; also recorded: Bindung zu pdFVIII | auffallende Affinität; also recorded: binden rekombinanten Faktor VIII | Banden in der SDS-PAGE unter reduzierenden Bedingungen und Silberfärbung (pdFVIII): intensiver gefärbte Banden; Western Blot des Eluates (pdFVIII): positiv; Eignung für die Affinitätschromatographie von pdFVIII (pdFVIII): eignen sich insbesondere; Elutionspeak (pdFVIII): größere Elutionspeaks |
